Reference: US8063095B2, “IAP BIR domain binding compounds” (Pharmascience Inc., priority 2005, dated 2011)

Assays:
[1] = target: T1, cIAP-2 bir3 domain (GST-HIAP1(cIAP-2) BIR3) (Homo sapiens, UniProt Q13489); assay: Fluorescence polarization-based competition assay, cIAP-2; format: binding; settings: Ki calculated from displacement of fluorescent probe; read-out: Fluorescent polarization (FP) assay cIAP-2
T1 construct: made in house; host or cells: E. coli DH5-alpha
Description: GST-HIAP1(cIAP-2) BIR3: HIAP1 coding sequence from amino acids 236-349, cloned into PGex4T3 via BamH1 and XhoI. The plasmid was transformed into E. coli DH5α for use in protein expression and purification.
(§1) A fluorescent peptide probe, Fmoc-Ala-Val-Pro-Phe-Tyr(t-Bu)-Leu-Pro-[…]-Gly-OH was prepared using standard Fmoc chemistry on 2-chlorotrityl chloride resin (Int. J. Pept. Prot. Res. 38:555-561, 1991). Cleavage from the resin was performed using 20% acetic acid in dichloromehane (DCM), which left the side chain still blocked. The C-terminal protected carboxylic acid was coupled to 4′-(aminomethy)fluorescein (Molecular Probes, A-1351; Eugene, Oreg.) using excess diisopropylcarbodiimide (DIC) in dimethylformamide (DMF) at room temperature and was purified by silica gel chromatography (10% methanol in DCM). The N-terminal Fmoc protecting group was removed using piperidine (20%) in DMF, and purified by silica gel chromatography (20% methanol in DCM, 0.5% HOAc). Finally, the t-butyl side chain protective groups were removed using 95% trifluoroacetic acid containing 2.5% water and 2.5% triisopropyl silane.
(§2) For all assays, the fluorescence and fluorescence-polarization was evaluated using a Tecan Polarion instrument with the excitation filter set at 485 nm and the emission filter set at 535 nm. For each assay, the concentration of the target protein was first establish by titration of the selected protein in order to produce a linear dose-response signal when incubated alone in the presence of the fluorescent probe. Upon establishing these conditions, the compounds potency (IC50) and selectivity, was assessed in the presence of a fix defined amount of target protein and fluorescent probe and a 10 point serial dilution of the selected compounds. For each IC50 curve, the assays were run as followed: 25 ul/well of diluted compound in 50 mM MES buffer pH 6.5 were added into a black 96 well plate then 25 ul/well of bovine serum albumin (BSA) at 0.5 mg/ml in 50 mM MES pH 6.5. Auto-fluorescence for each compound was first assessed by performing a reading of the compound/BSA solution alone. Then 25 ul of the fluorescein probe diluted into 50 mM MES containing 0.05 mg/ml BSA were added and a reading to detect quenching of fluorescein signal done. Finally 25 ul/well of the target or control protein (GST-BIRs) diluted at the appropriate concentration in 50 mM MES containing 0.05 mg/ml BSA were added and the fluorescence polarization evaluated.
(§3) For each assay the relative polarization-fluorescence units were plotted against the final concentrations of compound and the IC50 calculated using the Grad pad prism software and/or Cambridge soft. The ki value were derived from the calculated IC50 value as described above and according to the equation described in Nikolovska-Coleska, Z. (2004) Anal Biochem 332, 261-273.

[2] = target: T2, XIAP bir3 domain (GST-XIAP BIR3RING) (Homo sapiens, UniProt P98170); assay: Fluorescence polarization-based competition assay, XIAP; format: binding; settings: Ki calculated from displacement of fluorescent probe; read-out: Fluorescent polarization (FP) assay Xiap
T2 construct: made in house; host or cells: E. coli DH5-alpha
Description: GST-XIAP BIR3RING: XIAP coding sequence amino acids 246-497 cloned into PGEX2T1 via BamH1 and AVA I. The plasmid was transformed into E. coli DH5a for use in protein expression and purification.
as §1, §2, §3

[3] = target: T3, cIAP-1 bir3 domain (GST-HIAP2 (cIAP-1) BIR3) (Homo sapiens, UniProt Q13490); assay: Fluorescence polarization-based competition assay, cIAP-1; format: binding; settings: Ki calculated from displacement of fluorescent probe; read-out: Fluorescent polarization (FP) assay cIAP-1
T3 construct: made in house; host or cells: E. coli DH5-alpha
Description: GST-HIAP2 (cIAP-1) BIR3: HIAP2 coding sequence from amino acids 251-363 cloned into PGex4T3 via BamH1 and XhoI. The plasmid was transformed into E. coli DH5α for use in protein expression and purification.
as §1, §2, §3

[4] = target: T4, XIAP L-Bir2-Bir3 (GST-XIAP Linker Bir2Bir3RING fusion protein) (Homo sapiens, UniProt P98170); assay: Caspase de-repression assay using cellular extracts (apoptosome), L-Bir2-Bir3 XIAP; format: biochemical; settings: 293 cell S100 extract; effective concentration to achieve 50% of activation
T4 construct: made in house; host or cells: E. coli DH5-alpha
Description: GST-linker BIR2BIR3Ring: XIAP coding sequence from amino acids 93-497 cloned into PGex4T1 via BamH1 and XhoI. Amino acids 93-497 were amplified from full length XIAP in pGex4t3, using the primers: […] and GCTGCATGTGTGTCAGAGG, using standard PCR conditions. The PCR fragment was TA cloned into pCR-2.1 (invitrogen). Linker BIR2BIR3Ring was subcloned into pGex4T1 by BamHI/XhoI digestion. The plasmid was transformed into E. coli DH5α for use in protein expression and purification. […]
100 ug of 293 cell S100 extract and 0.25 uM-2 uM of GST-XIAP fusion protein (XIAP-Bir3RING, XIAP-Linker Bir2Bir3RING, or full-length XIAP) were co-incubated with serial dilutions of compound (40 uM-5 pM). Caspases present in the extracts were activated by adding 1 mM dATP, 0.1 mM ALLN, 133 ug Cytochrome C (final concentrations), and incubating at 37° C. for 25 minutes. All reactions and dilutions used S100 buffer (50 mM Pipes pH 7.0, 50 mM KCl, 0.5 mM EGTA pH 8.0, 2 mM MgCl2 supplemented with 1/1000 dilutions of 2 mg/ml Cytochalisin B, 2 mg/ml Chymotstatin, Leupeptin, Pepstatin, Antipain, 0.1M PMSF, 1M DTT). Final reaction volume was 30 ul. Caspase-3 activity was measured by overlaying 30 ul of a 0.4 mM DEVD-AMC solution. released AMC cleavage was measured in a TECAN spectrophotometer at 360 nm excitation and 444 nm emission, on a kinetic cycle of 1 hour with readings taken every 5 minutes. Caspase activity was calculated as Vo of AMC fluorescence/sec. Caspase de-repression by our compounds was compared to fully activated extract and activated extract repressed by the presence of XIAP fusion protein.

[5] = system: MDA-MB-231 (breast) cancer cells; assay: Cell viability (MTT) assay, MDA cells; settings: Homo sapiens, MTT based assay
Description: (§4) MDA-MD-231 (breast) and SKOV-3 (ovarian) cancer cells were cultured in RPMI1640 media supplemented with 10% FBS and 100 units/mL of Penicillin and Steptomycin.
(§5) Viability assays were done on a number of cells including MDA-MB-231, SKOV-3, H460, PC3, HCT-116, and SW480 cells. Cells were seeded in 96 well plates at a respective density of 5000 and 2000 cells per well and incubated at 37° C. in presence of 5% CO2 for 24 hours. Selected compounds were diluted into the media at various concentration ranging from 0.01 uM up to 100 uM. Diluted compounds were added onto the MDA-MB-231 cells. For the MDA-MB-231 SKOV3, H460, PC3, HCT-116, and SW480 cells, the compounds were added either alone or in presence of 1-3 ng/ml of TRAIL. After 72 hours cellular viability was evaluated by MTT based assays.

[6] = system: SKOV-3 (ovarian) cancer cells; assay: Cell viability (MTT) assay, SKOV3 cells; settings: 72 hours, MTT based assay; compounds added either alone or in presence of 1-3 ng/ml of TRAIL
Description: as §4, §5

T2 sequence (P98170 246-497): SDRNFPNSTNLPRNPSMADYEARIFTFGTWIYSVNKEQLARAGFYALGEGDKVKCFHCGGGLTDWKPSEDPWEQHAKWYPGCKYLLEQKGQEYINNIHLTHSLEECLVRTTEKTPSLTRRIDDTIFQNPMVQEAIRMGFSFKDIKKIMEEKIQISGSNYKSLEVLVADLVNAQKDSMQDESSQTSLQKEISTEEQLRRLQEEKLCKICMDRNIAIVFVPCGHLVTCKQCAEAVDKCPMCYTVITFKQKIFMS
T4 sequence (P98170 93-497): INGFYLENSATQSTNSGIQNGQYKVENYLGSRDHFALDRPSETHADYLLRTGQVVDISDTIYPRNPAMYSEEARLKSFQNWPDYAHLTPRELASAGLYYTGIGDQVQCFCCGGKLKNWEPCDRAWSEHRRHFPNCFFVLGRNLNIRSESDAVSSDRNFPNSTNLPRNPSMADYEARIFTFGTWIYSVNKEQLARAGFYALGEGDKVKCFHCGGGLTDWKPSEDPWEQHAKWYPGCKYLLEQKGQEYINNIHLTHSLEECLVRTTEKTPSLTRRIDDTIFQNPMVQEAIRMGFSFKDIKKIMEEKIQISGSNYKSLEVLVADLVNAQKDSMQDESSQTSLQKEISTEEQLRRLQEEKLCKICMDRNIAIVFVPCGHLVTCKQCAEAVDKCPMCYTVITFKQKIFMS
T1 sequence (Q13489 236-349): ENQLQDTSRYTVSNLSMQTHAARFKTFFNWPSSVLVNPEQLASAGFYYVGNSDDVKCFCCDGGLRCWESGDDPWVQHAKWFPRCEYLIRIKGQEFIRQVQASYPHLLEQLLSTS
T3 sequence (Q13490 251-363): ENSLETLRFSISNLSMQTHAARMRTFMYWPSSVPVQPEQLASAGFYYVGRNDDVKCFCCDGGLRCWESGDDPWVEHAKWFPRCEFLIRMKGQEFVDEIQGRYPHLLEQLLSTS

Compound	EC50 ([5]; MDA-MB-231, 72 h)	EC50 [6]	Ki [2]	IC50 [4]	other results
CN[C@@H](C)C(=O)N[C@H](C(=O)N1CCC[C@H]1CN(CCc1ccccc1)C(=O)[C@H](N)Cc1ccc(OC)cc1)[C@@H](C)OCC#CC#CCO[C@H](C)[C@H](NC(=O)[C@H](C)NC)C(=O)N1CCC[C@H]1CN(CCc1ccccc1)C(=O)[C@H](N)Cc1ccc(OC)cc1 [Compound 2]			≤ 0.1 µM	≤ 0.1 µM	Ki [1]: ≥ 0.1 µM; Ki [3]: ≤ 0.1 µM; EC50 ([5]; MDA-MB-231, 72 hours): < 0.1 µM
CN[C@@H](C)C(=O)N[C@H](C(=O)N1CCC[C@H]1CN(CCc1ccccc1)C(=O)c1ccccc1)[C@@H](C)OCC#CC#CCO[C@H](C)[C@H](NC(=O)[C@H](C)NC)C(=O)N1CCC[C@H]1CN(CCc1ccccc1)C(=O)c1ccccc1 [Compound 3]	< 0.1 µM		≤ 0.1 µM	≤ 0.5 µM	Ki [1]: ≤ 0.005 µM; Ki [3]: ≤ 0.1 µM
CN[C@@H](C)C(=O)N[C@H](C(=O)N1CCC[C@H]1CN(CCc1ccccc1)S(=O)(=O)c1ccccc1)[C@@H](C)OCC#CC#CCO[C@H](C)[C@H](NC(=O)[C@H](C)NC)C(=O)N1CCC[C@H]1CN(CCc1ccccc1)S(=O)(=O)c1ccccc1 [Compound 4]			≤ 0.005 µM	≤ 0.5 µM	EC50 ([5]; MDA-MB-231, 72 hours): < 0.1 µM
CN[C@@H](C)C(=O)N[C@H](C(=O)N1CCC[C@H]1CN(CCc1ccccc1)S(=O)(=O)Cc1ccccc1)[C@@H](C)OCC#CC#CCO[C@H](C)[C@H](NC(=O)[C@H](C)NC)C(=O)N1CCC[C@H]1CN(CCc1ccccc1)S(=O)(=O)Cc1ccccc1 [Compound 6]			≤ 0.005 µM	≤ 0.5 µM	EC50 ([5]; MDA-MB-231, 72 hours): < 0.1 µM
CN[C@@H](C)C(=O)N[C@H](C(=O)N1CCC[C@H]1CN(CCc1ccccc1)C(=O)OCc1ccccc1)[C@@H](C)OCC#CC#CCO[C@H](C)[C@H](NC(=O)[C@H](C)NC)C(=O)N1CCC[C@H]1CN(CCc1ccccc1)C(=O)OCc1ccccc1 [Compound 7]			≤ 0.1 µM	≤ 0.5 µM	EC50 ([5]; MDA-MB-231, 72 hours): < 0.1 µM
CN[C@@H](C)C(=O)N[C@H](C(=O)N1CCC[C@H]1CN(CCc1ccccc1)S(C)(=O)=O)[C@@H](C)OCC#CC#CCO[C@H](C)[C@H](NC(=O)[C@H](C)NC)C(=O)N1CCC[C@H]1CN(CCc1ccccc1)S(C)(=O)=O [Compound 8]	< 0.1 µM		≤ 0.005 µM	≤ 0.5 µM	
CN[C@@H](C)C(=O)N[C@@H](COCc1ccc(COC[C@H](NC(=O)[C@H](C)NC)C(=O)N2CCC[C@H]2CN(CCc2ccccc2)C(=O)C(F)(F)F)cc1)C(=O)N1CCC[C@H]1CN(CCc1ccccc1)C(=O)C(F)(F)F [Compound 11]	< 0.1 µM			≥ 1 µM	Ki [1]: ≥ 0.1 µM
CN[C@@H](C)C(=O)N[C@@H](CCCNC(=O)CCCC(=O)NCCC[C@H](NC(=O)[C@H](C)NC)C(=O)N1CCC[C@H]1CN(CCc1ccccc1)S(=O)(=O)c1ccc(F)cc1)C(=O)N1CCC[C@H]1CN(CCc1ccccc1)S(=O)(=O)c1ccc(F)cc1 [Compound 43]		< 1 µM			
CN[C@@H](C)C(=O)N[C@@H](CCCNC(=O)c1ccc(C(=O)NCCC[C@H](NC(=O)[C@H](C)NC)C(=O)N2CCC[C@H]2CN(CCc2ccccc2)S(=O)(=O)c2ccc(F)cc2)cc1)C(=O)N1CCC[C@H]1CN(CCc1ccccc1)S(=O)(=O)c1ccc(F)cc1 [Compound 45]		< 1 µM			

Continued, in another order:

EC50 ([5]; MDA-MB-231, 72 h)	EC50 [6]	Compound	Ki [2]	IC50 [4]	other results
< 1 µM		CN[C@@H](C)C(=O)N[C@@H](COC(=O)CCCCCC(=O)OC[C@H](NC(=O)[C@H](C)NC)C(=O)N1CCC[C@H]1CN(CCc1ccccc1)C(=O)c1ccccc1)C(=O)N1CCC[C@H]1CN(CCc1ccccc1)C(=O)c1ccccc1 [Compound 13]	≤ 0.1 µM		
< 1 µM		CN[C@@H](C)C(=O)N[C@@H](COC(=O)c1ccc(C(=O)OC[C@H](NC(=O)[C@H](C)NC)C(=O)N2CCC[C@H]2CN(CCc2ccccc2)C(=O)c2ccccc2)cc1)C(=O)N1CCC[C@H]1CN(CCc1ccccc1)C(=O)c1ccccc1 [Compound 14]	≤ 0.1 µM		
	< 1 µM	CN[C@@H](C)C(=O)N[C@@H](CCCNC(=O)C(=O)NCCC[C@H](NC(=O)[C@H](C)NC)C(=O)N1CCC[C@H]1CN(CCc1ccccc1)S(=O)(=O)c1ccc(F)cc1)C(=O)N1CCC[C@H]1CN(CCc1ccccc1)S(=O)(=O)c1ccc(F)cc1 [Compound 41]			
	> 1 µM	CN[C@@H](C)C(=O)N[C@@H](CCCNC(=O)NCCC[C@H](NC(=O)[C@H](C)NC)C(=O)N1CCC[C@H]1CN(CCc1ccccc1)S(=O)(=O)c1ccc(F)cc1)C(=O)N1CCC[C@H]1CN(CCc1ccccc1)S(=O)(=O)c1ccc(F)cc1 [Compound 42]			
	< 1 µM	CN[C@@H](C)C(=O)N[C@@H](CCCNC(=O)CCCCC(=O)NCCC[C@H](NC(=O)[C@H](C)NC)C(=O)N1CCC[C@H]1CN(CCc1ccccc1)S(=O)(=O)c1ccc(F)cc1)C(=O)N1CCC[C@H]1CN(CCc1ccccc1)S(=O)(=O)c1ccc(F)cc1 [Compound 44]			
	< 0.1 µM	CN[C@@H](C)C(=O)N[C@@H](CCCCNC(=O)C(=O)NCCCC[C@H](NC(=O)[C@H](C)NC)C(=O)N1CCC[C@H]1CN(CCc1ccccc1)C(=O)C(F)(F)F)C(=O)N1CCC[C@H]1CN(CCc1ccccc1)C(=O)C(F)(F)F [Compound 46]			
	< 1 µM	CN[C@@H](C)C(=O)N[C@@H](CCCCNC(=O)NCCCC[C@H](NC(=O)[C@H](C)NC)C(=O)N1CCC[C@H]1CN(CCc1ccccc1)C(=O)C(F)(F)F)C(=O)N1CCC[C@H]1CN(CCc1ccccc1)C(=O)C(F)(F)F [Compound 47]			
